Measured values as given in article PMC11181022, “The molecular architecture of Lactobacillus S-layer: Assembly and attachment to teichoic acids” (Proceedings of the National Academy of Sciences of the …, 2024).

Target: T1, SlpA_amy_III (SlpA_amy_D3) (Lactobacillus amylovorus, UniProt E4SK47)
T1 construct: gene LA2_00970; His-tagged, 15N-labelled, expressed in E. coli BL21 DE
T1 sequence (E4SK47 322-456): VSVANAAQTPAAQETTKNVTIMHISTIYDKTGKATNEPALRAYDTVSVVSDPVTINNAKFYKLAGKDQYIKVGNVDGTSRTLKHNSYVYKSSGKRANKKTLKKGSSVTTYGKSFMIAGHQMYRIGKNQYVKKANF
Test: 1H-15N HSQC NMR titration, mean Kd of per-residue shift fits
Conditions: 20 mM ADA, 50 mM NaCl, pH 6.5, 25 C, two binding areas TAB1 and TAB2

| Substance | Kd (200 uM protein) | Kd (300 uM protein) |
| --- | --- | --- |
| GroP pentamer | 500 µM | – |
| GroP trimer | – | 3500 µM |
